Assay results as given in the supplement of paper PMC12592484.

How the values were obtained:
Assay in all cases: drug sensitivity score (DSS2, normalised partial AUC of dose-response, 72 h CellTiter-Glo viability) (DSS (dimensionless)); higher = more sensitive (stronger growth inhibition / cytotoxicity); extreme values may be limits of the assay
22Rv1 = tested on: 22Rv1
Summary of the method: (§1)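 Cells were added to 384-well plates already holding compounds at five doses over a 10,000-fold range: low-passage primary prostate cancer-associated fibroblasts, PF179T, WPMY-1, LNCaP and 22Rv1. Viability was measured 72 h later by CellTiter-Glo 2.0 luminescence and scaled to vehicle and positive-control wells. The drug sensitivity score, computed in BREEZE, is a partial area under the fitted logistic dose–response curve divided by the log of its upper asymptote, with higher scores meaning greater sensitivity.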

CAF#1 = tested on: CAF#1 (primary prostate cancer-associated fibroblasts of myCAF-like type)
Summary of the method: as §1

CAF#2 = tested on: CAF#2 (primary prostate cancer-associated fibroblasts of iCAF-like type)
Summary of the method: as §1

CAF#3 = tested on: CAF#3 (primary prostate cancer-associated fibroblasts of myCAF-like type)
Summary of the method: as §1

CAF#4 = tested on: CAF#4 (primary prostate cancer-associated fibroblasts of iCAF-like type)
Summary of the method: as §1

CAF#5 = tested on: CAF#5 (primary prostate cancer-associated fibroblasts of myCAF-like type)
Summary of the method: as §1

CAF#6 = tested on: CAF#6 (primary prostate cancer-associated fibroblasts of iCAF-like type)
Summary of the method: as §1

CAF#7 = tested on: CAF#7 (primary prostate cancer-associated fibroblasts of myCAF-like type)
Summary of the method: as §1

LNCAP = tested on: LNCAP
Summary of the method: as §1

PF179T = tested on: PF179T
Summary of the method: as §1

WPMY-1 = tested on: WPMY-1
Summary of the method: as §1

SMILES	drug sensitivity score (22Rv1)	drug sensitivity score (CAF#1)	drug sensitivity score (CAF#2)	drug sensitivity score (CAF#3)	drug sensitivity score (CAF#4)	drug sensitivity score (CAF#5)	drug sensitivity score (CAF#6)	drug sensitivity score (CAF#7)	drug sensitivity score (LNCAP)	drug sensitivity score (PF179T)	drug sensitivity score (WPMY-1)
CCc1nc(C(N)=O)c(Nc2ccc(N3CCC(N4CCN(C)CC4)CC3)c(OC)c2)nc1NC1CCOCC1 [Gilteritinib] (tested concentration range 0.1-1000 nM)	1.7	0.3	0	0	0	0.1	0	0	0	1.3	5.2
CCN(CC)Cc1ccc2cc(COC(=O)Nc3ccc(C(=O)NO)cc3)ccc2c1 [Givinostat] (tested concentration range 0.1-1000 nM)	9.8	2.4	4.2	1.8	2.3	4.9	3.6	3.1	9.3	3.9	11.4
CN1CC[C@@H](NC(=O)Nc2ccc(C#N)cc2)C[C@@H]1c1nc2ccccc2[nH]1 [Glasdegib] (tested concentration range 0.1-1000 nM)	0	0	0	0.1	0	0	0.3	0	0	0	0
COCCNCc1ccc(-c2cc3nccc(Oc4ccc(NC(=S)NC(=O)Cc5ccc(F)cc5)cc4F)c3s2)nc1 [Glesatinib] (tested concentration range 0.2-2500 nM)	1.4	5.6	5.1	4.4	5.7	4.3	3.4	4.2	1.3	3.4	2.5
CC(C)C[C@H](NC(=O)[C@@H](COC(C)(C)C)NC(=O)[C@H](Cc1ccc(O)cc1)NC(=O)[C@H](CO)NC(=O)[C@H](Cc1c[nH]c2ccccc12)NC(=O)[C@H](Cc1cnc[nH]1)NC(=O)[C@@H]1CCC(=O)N1)C(=O)N[C@@H](CCCNC(=N)N)C(=O)N1CCC[C@H]1C(=O)NNC(N)=O [Goserelin] (tested concentration range 1-10000 nM)	0	0	0	0	0	0.2	0.6	0	0	0	0
O=S(=O)(c1cccc2c(O)nccc12)N1CCCNCC1 [Hydroxyfasudil] (tested concentration range 1.9-19000 nM)	0	0	0	0	0	0	0	0	0	0	0.3
NC(=O)NO [Hydroxyurea] (tested concentration range 100-1000000 nM)	3.8	1.9	5.5	0.5	0.2	2.5	0	0	4.6	2.4	5
O=C(O)c1ccc(O)c2ncccc12 [IOX-1] (tested concentration range 10-100000 nM)	0.9	0.1	1.7	0.3	2.6	0.8	0.8	0.4	6.9	3.9	0.8
O=C(O)CNC(=O)c1c(O)c2ccccc2n(Cc2ccccc2)c1=O [IOX-2] (tested concentration range 2.5-25000 nM)	0	0	0	0	0	0	0	0	0	0	0
C=CC(=O)N1CCC[C@@H](n2nc(-c3ccc(Oc4ccccc4)cc3)c3c(N)ncnc32)C1 [Ibrutinib] (tested concentration range 0.1-1000 nM)	0	0.1	0	0.2	0	0.7	0	0	0	0	0
C#Cc1cccc(Nc2ncnc3cc4c(cc23)OCCOCCOCCO4)c1 [Icotinib] (tested concentration range 1-10000 nM)	0.7	0.3	0	2.3	0	0	0	0	0	0	0
CC(=O)[C@]1(O)Cc2c(O)c3c(c(O)c2[C@@H](O[C@H]2C[C@H](N)[C@H](O)[C@H](C)O2)C1)C(=O)c1ccccc1C3=O [Idarubicin] (tested concentration range 0.1-1000 nM)	12.9	7.6	12.1	4.4	7.5	7.9	8.5	9.3	19.9	12.5	16.4
COc1cc(C(=O)O)ccc1NC(=O)[C@@H]1N[C@@H](CC(C)(C)C)[C@](C#N)(c2ccc(Cl)cc2F)[C@H]1c1cccc(Cl)c1F [Idasanutlin] (tested concentration range 1-10000 nM)	12.7	12.5	13.5	5.1	11.5	12.5	10.6	10.2	0	16.7	1.9
CC[C@H](Nc1ncnc2[nH]cnc12)c1nc2cccc(F)c2c(=O)n1-c1ccccc1 [Idelalisib] (tested concentration range 1-10000 nM)	2	3.4	4.5	4.6	5.6	3.6	3.2	3.9	10.2	5.4	1.3
Cc1ccc(NC(=O)c2ccc(CN3CCN(C)CC3)cc2)cc1Nc1nccc(-c2cccnc2)n1 [Imatinib] (tested concentration range 1-10000 nM)	1.6	0.3	2.6	1.7	2	0.6	1.7	0.7	2.2	0	0.6
CC(C)Cn1cnc2c(N)nc3ccccc3c21 [Imiquimod] (tested concentration range 0.2-2500 nM)	0	1.4	0	0.1	0	0	0	0	0	0	0
Cn1cc(C[C@@H](N)C(=O)O)c2ccccc21 [Indoximod] (tested concentration range 0.5-5000 nM)	0	0	0	0	0	0.6	0	0	0	0	0
CCN1CCN(c2ccc(Nc3cc(N(C)C(=O)Nc4c(Cl)c(OC)cc(OC)c4Cl)ncn3)cc2)CC1 [Infigratinib] (tested concentration range 0.1-1000 nM)	0	0	0	0	0	0	0	0	0	0	0
CC(C)NC[C@@H](C(=O)N1CCN(c2ncnc3c2[C@H](C)C[C@H]3O)CC1)c1ccc(Cl)cc1 [Ipatasertib] (tested concentration range 1-10000 nM)	5.7	0.6	1.2	1.8	0.1	1.1	1.7	0	22.6	0	2
CCC(C)n1ncn(-c2ccc(N3CCN(c4ccc(OCC5COC(Cn6cncn6)(c6ccc(Cl)cc6Cl)O5)cc4)CC3)cc2)c1=O (stereo not drawn) [Itraconazole] (tested concentration range 0.5-5000 nM)	2.7	0	1.2	2.7	0.2	0	1.6	1.2	5.3	1	4.2
N#Cc1ccnc(N2C(=O)CC[C@H]2C(=O)N(c2cncc(F)c2)[C@H](C(=O)NC2CC(F)(F)C2)c2ccccc2Cl)c1 [Ivosidenib] (tested concentration range 1-10000 nM)	0	0.7	1.4	0	2	0.3	0	0	0	0	0.2
C/C(=C\c1csc(C)n1)[C@@H]1C[C@@H]2O[C@]2(C)CCC[C@H](C)[C@H](O)[C@@H](C)C(=O)C(C)(C)[C@@H](O)CC(=O)N1 [Ixabepilone] (tested concentration range 0.1-1000 nM)	4.3	2.9	4.3	0.1	2.9	2.5	0	0.4	4.4	3.2	4.5
CC(C)C[C@H](NC(=O)CNC(=O)c1cc(Cl)ccc1Cl)B(O)O [Ixazomib] (tested concentration range 0.1-1000 nM)	10.7	4.6	6.3	7.2	5.8	7.3	6	7.4	12.9	4.9	16.5
